Experimental data taken from patent publication US20230094922A1, “METHODS OF THERAPEUTIC PROGNOSTICATION” (GENETIKAPLUS LTD., priority 2020, published 2023).

Test system: iPSC-derived cortical neurons
Type: cell-based
Conditions: responders vs non-responders after 10 μM Bupropion

## CC(NC(C)(C)C)C(=O)c1cccc(Cl)c1 (stereo not drawn) [Bupropion, 3-Chloro-N-tert-butyl-β-keto-α-methylphenethylamin]
NS
  logFC PARP6: −0.681
  logFC PCBP4: −1.293
  logFC PCDH10: −1.015
  logFC PCSK1N: −1.46
  logFC PDYN: −1.613
  logFC PGM2L1: −1.008
  logFC PHACTR3: −1.439
  logFC PID1: −1.455
  logFC PIK3R1: −0.9783
  logFC PITPNC1: −0.8298
  logFC PITPNM2: −0.7259
  logFC PKIA: −1.194
  logFC PLPPR2: −0.974
  logFC PNMA3: −1.221
  logFC PPEF1: −1.59
  logFC PPFIA2: −1.898
  logFC PPFIA3: −0.735
  logFC PPM1K: −0.7077
  logFC PPP1R13B: −1.191
  logFC PPP2R2B: −1.116
  logFC PPP2R2C: −1.735
  logFC PPP2R5B: −1.051
  logFC PRDM8: −2.418
  logFC PSD: −1.027
  logFC PSD2: −1.447
  logFC PTPRH: −1.255
  logFC PTPRN2: −1.272
  logFC PTPRR: −1.517
  logFC RAB3A: −1.354
  logFC RAB3C: −1.236
  logFC RAB6B: −1.225
  logFC RAB33A: −1.51
  logFC RAP1GAP: −0.7191
  logFC RASGEF1B: −1.168
  logFC RBFOX1: −1.576
  logFC RBFOX3: −1.575
  logFC RBP4: −2.21
  logFC RCAN2: −1.602
  logFC REM2: −1.186
  logFC RETREG2: −0.5717
  logFC RGR: −2.072
  logFC RGS7: −1.689
  logFC RHBDL3: −1.325
  logFC RHOBTB2: −0.7317
  logFC RIMS1: −1.83
  logFC RIT2: −2.318
  logFC RNF152: −1.135
  logFC RNF165: −0.9556
  logFC RPS6KA2: −0.8831
  logFC RTN1: −1.456
  logFC RUFY3: −0.7072
  logFC RUNDC3B: −1.512
  logFC RUNX1T1: −1.916
  logFC RXRG: −1.776
  logFC SAMD14: −1.111
  logFC SARM1: −1.209
  logFC SCAPER: −0.7606
  logFC SCG2: −1.691
  logFC SCG3: −1.431
  logFC SCN1A: −1.947
  logFC SCN2A: −1.841
  logFC SCN3B: −1.722
  logFC SCN7A: −1.457
  logFC SCN9A: −1.803
  logFC SEPTIN3: −1.333
  logFC SERP2: −1.449
  logFC SEZ6L: −1.45
  logFC SEZ6L2: −0.7768
  logFC SHANK1: −1.292
  logFC SHISAL1: −1.498
  logFC SHISAL2A: −1.16
  logFC SIDTI: −2.103
  logFC SIT1: −1.927
  logFC SLC4A8: −0.8668
  logFC SLC7A14: −1.705
  logFC SLC8A3: −1.496
  logFC SLC17A6: −2.069
  logFC SLC22A15: −0.9589
  logFC SLC22A23: −1.148
  logFC SLC37A1: −1.052
  logFC SLC38A4: −1.273
  logFC SLCO2B1: −1.491
  logFC SLCO5A1: −1.211
  logFC SLITRK1: −1.312
  logFC SMAP2: −0.8196
  logFC SMPD3: −1.445
  logFC SNAP91: −1.605
  logFC SNCB: −1.524
  logFC SNCG: −1.396
  logFC SNPH: −1.134
  logFC SNTG1: −2.048
  logFC SPNS2: −1.211
  logFC SPTBN4: −1.122
  logFC SRRM3: −1.175
  logFC SSTR2: −1.449
  logFC ST8SIA2: −1.153
  logFC STK32B: −1.644
  logFC STX1B: −0.9907
  logFC STXBP1: −1.033
  logFC SV2A: −0.9341
  logFC SYN1: −1.543
  logFC SYNGR1: −0.8271
  logFC SYP: −1.709
  logFC SYT1: −1.058
  logFC SYT7: −1.505
  logFC SYT13: −1.444
  logFC TAC1: −1.101
  logFC TAFA1: −2.193
  logFC TAGLN3: −1.002
  logFC TANC2: −0.7278
  logFC TBC1D24: −0.8527
  logFC TERF2IP: −0.7455
  logFC TH: −1.664
  logFC THRB: −2.357
  logFC TIMP2: −0.878
  logFC TLCD3B: −1.431
  logFC TMEM59L: −0.8819
  logFC TMEM121B: −0.8958
  logFC TMEM132B: −1.025
  logFC TMEM151A: −1.522
  logFC TMEM151B: −1.463
  logFC TMEM178A: −0.904
  logFC TMEM246: −1.159
  logFC TOM1L2: −0.7199
  logFC TP53I11: −0.8407
  logFC TP53INP2: −1.177
  logFC TPPP: −1.04
  logFC TRIB2: −0.7077
  logFC TRIM9: −1.352
  logFC TSPAN7: −1.098
  logFC TSPYL5: −1.843
  logFC TTBK1: −1.374
  logFC TUBB2B: −0.7583
  logFC TVP23A: −1.064
  logFC VPS26B: −0.6245
  logFC VSTM2A: −1.971
  logFC VWA5B2: −1.111
  logFC VXN: −1.527
  logFC WDR47: −0.8343
  logFC WDR82: −0.4862
  logFC WNK2: −0.7608
  logFC WSB2: −0.8644
  logFC ZC3HAV1L: −2.186
  logFC ZDHHC22: −1.455
  logFC ZFP3: −1.933
  logFC ZNF385A: −0.8795
  logFC ZNF439: −2.201
p<0.01
  logFC ABCC6: −0.5461
  logFC ADAMTS4: −0.723
  logFC ADAMTS8: −1.658
  logFC ADAMTS15: −1.743
  logFC ADAMTSL1: −1.46
  logFC ADAMTSL2: −1.833
  logFC ALDOC: −0.6635
  logFC APOL2: −0.6452
  logFC AQP6: −1.137
  logFC ARHGAP23: −0.5891
  logFC ARHGEF28: −0.916
  logFC ARL17B: −1.232
  logFC ASPN: −3.695
  logFC BDKRB2: −1.475
  logFC C1R: −1.32
  logFC C5orf63: −1.211
  logFC CABP7: −1.06
  logFC CACNA1H: −0.5137
  logFC CCDC183: −0.5281
  logFC CCDC187: −1.023
  logFC CCER2: −0.8431
  logFC CD151: −0.4377
  logFC CDKN1C: −0.6211
  logFC CEMIP: −2.321
  logFC CHST8: −1.474
  logFC COL1A1: −1.88
  logFC COL6A1: −0.5639
  logFC COL8A2: −2.755
  logFC COL15A1: −2.224
  logFC CPA4: −2.791
  logFC CPNE5: −0.937
  logFC CXCL2: −1.783
  logFC CXCL6: −2.412
  logFC CXCL8: −3.086
  logFC DHRS3: −1.126
  logFC DRGX: −4.337
  logFC DYRK1B: −0.3984
  logFC EFEMP2: −0.7929
  logFC EGFLAM: −1.798
  logFC ELN: −2.048
  logFC EPHB3: −0.4956
  logFC EYA2: −0.955
  logFC FAM20C: −0.6923
  logFC FBLN5: −1.918
  logFC FMOD: −2.269
  logFC FNDC5: −0.7008
  logFC FRMPD1: −2.303
  logFC GAA: −0.4856
  logFC GALNT14: −1.152
  logFC GLIS2: −0.5025
  logFC GPBAR1: −0.9131
  logFC HCN1: −2.181
  logFC HES6: −1.04
  logFC HMX1: −1.478
  logFC HOXB5: −2.739
  logFC HS3ST2: −1.228
  logFC HS6ST1: −0.6264
  logFC IAH1: −0.789
  logFC IGFBP5: −0.9814
  logFC IL17RC: −0.5333
  logFC INHBB: −1.748
  logFC INMT: −1.061
  logFC IRF2BPL: −0.3835
  logFC ISLR: −1.646
  logFC ITPRIP: −0.5931
  logFC JOSD2: −0.7377
  logFC KCNA1: −3.416
  logFC KCNJ5: −1.028
  logFC KDM4B: −0.331
  logFC KHDC1: −0.7724
  logFC KIF26A: −0.5135
  logFC KLHL35: −1.144
  logFC LGALS3BP: −0.9602
  logFC LOXL1: −0.6236
  logFC LRFN5: −0.6816
  logFC LURAP1L: −1.086
  logFC LYPD1: −0.7703
  logFC MAB21L2: −0.9329
  logFC MAFB: −0.573
  logFC MCC: −0.8548
  logFC MGP: −2.67
  logFC MKX: −1.878
  logFC MX2: −1.618
  logFC NDUFA4L2: −0.8379
  logFC NFIX: −2.446
  logFC NNMT: −2.326
  logFC NPR2: −0.5942
  logFC NTNG2: −1.161
  logFC OGFR: −0.318
  logFC OLFML2B: −1.03
  logFC OPRK1: −0.939
  logFC OPRM1: −1.985
  logFC OPTN: −0.44
  logFC OTOG: −1.855
  logFC P4HA3: −2.239
  logFC PADI2: −1.485
  logFC PALM: −0.581
  logFC PARP10: −1.041
  logFC PENK: −1.977
  logFC PHOX2B: −2.192
  logFC PIEZO2: −2.464
  logFC PIRT: −3.199
  logFC PLAC9: −1.585
